Experimental data published in PMC5041077, “Metabolic profile and safety of piperlongumine” (Scientific Reports, 2016).

What was measured:
CYP2C9 = CYP2C9 (Homo sapiens, UniProt P11712); experiment: in vitro
human liver microsomes [1] = experiment: Time course of metabolite formation; type: in vitro ADME; conditions: PPL at S50, 2 mg/mL HLM
Protocol: The formation of metabolites was investigated through the application of three distinct mass spectrometry instruments. The incubation time was set at 50 min and 2 mg/mL of microsomal protein was employed in these experiments. The increase in the incubation time and microsomal protein aimed to produce a higher amount of metabolites. The concentration of PPL was 283.6 μM. After metabolism reaction, in order to favor a higher recovery of metabolites from microsomal medium liquid-liquid extraction was performed using 1 mL of ethyl acetate as the extractor solvent. The samples (n = 10) were shaken for 10 min at 1500 rpm using an orbital agitator and centrifuged for 5 min at 2860 × g. After that, 750 μL of supernatant was collected, and each one was pooled from ten single reactions. Next, the samples were evaporated to dryness by using a gentle stream of compressed air. To facilitate the identification of compounds that have hydroxyl groups, after sample preparation and before GC-MS analysis, silylation reactions were performed in the extracted samples. The residues were reconstituted in 50 μL of pyridine and 200 μL of BSTFA solution containing 2% TMCS. Following, the samples were slightly agitated and then incubated in a water bath at 75 °C for 120 min. […]
The incubation time was evaluated in different times (5, 10, 20, 40 and 50 min) in order to investigate the formation of metabolites. […]

[2] = test system: recombinant human CYP (rhCYP) isoforms; experiment: P450 reaction phenotyping by rhCYP isoforms; type: in vitro ADME; conditions: 50 min incubation
Protocol: The capacity of selected major human P450 isoforms to metabolize PPL was screened using human recombinant isoenzymes. Briefly, PPL (S50 concentration) was added into a 200 μL incubation mixture containing P450 isoform (50 pmol/mL for CYP3A4, CYP1A2, CYP2C9, 2B6, 2D6 and 2C19; 25 pmol/mL for CYP2C8 and […]; final concentrations), NADPH regeneration system solution A (1.3 mM NADP^+ and 3.3 mM glucose-6-phosphate), NADPH regeneration system solution B (0.4 U/mL glucose-6-phosphate dehydrogenase), potassium phosphate buffer pH 7.4 (100 mM), except for CYP2C9 where the phosphate buffer was substituted by tris buffer pH 7.5 (100 mM), maintaining for 50 min in shaking water bath. In order to enhance the sensibility one sample was pooled from 4 single reactions. PPL metabolites were analyzed by a GC-MS as described previously. The MS peak areas of PPL metabolites were recorded to determine the contributions of the P450 enzymes.
(§1) Phenotyping study at 50 min. In order to evaluate the CYP isoforms involved in M4 formation, a similar study as described in the main text was performed, except by the time of incubation of 50 min (Fig. S13).

CYP3A4 = experiment: P450 reaction phenotyping by selective human enzyme inhibitors; type: in vitro ADME; conditions: human, human liver microsomes, probe PPL (formation of metabolite M2)
Protocol: (§2) This study was performed by evaluating the PPL metabolism and the produced metabolites in the presence of these specific inhibitors. […] The incubation protocol was the same for all inhibitors, except for orphenadrine, which was pre-incubated with all incubation constituents at 37 °C for 15 min before the reaction was initiated by the addition of substrate. The concentration of PPL used in this study corresponded to its S50/2. […] In order to enhance the sensibility one sample was pooled from 4 single reactions. Sample preparations and GC-MS analysis were performed according to assay previous described. The results were expressed as % of remain activity and compared with control sample lacking the inhibitors.
as §1

human liver microsomes [3] = experiment: as above; type: in vitro ADME; conditions: PPL at S50/2, 10 min incubation
Protocol: as §2, §1

epoxide hydrolase = experiment: Epoxide hydrolase involvement on M2 catalysis (valproic acid); type: in vitro ADME, human; conditions: valproic acid 550 μM, PPL 63.8 µM, 50 min, 2 mg/mL HLM, with NADPH
Protocol: Epoxide hydrolase involvement on M2 catalysis. To evaluate the epoxide hydrolase involvement on M2 catalysis (Fig. S14), PPL (63.8 µM) was incubated alone or in the presence of valproic acid (550 μM), an epoxide hydrolase inhibitor. The incubation was carried out for 50 minutes at 37°C with 2 mg/mL HLM. Sample preparations and chromatographic analysis were performed according to assay described in phenotyping study session. The results were expressed as % of remain activity and compared with control sample with the absence of the inhibitor.

CYP2C9, sequence (P11712 whole entry): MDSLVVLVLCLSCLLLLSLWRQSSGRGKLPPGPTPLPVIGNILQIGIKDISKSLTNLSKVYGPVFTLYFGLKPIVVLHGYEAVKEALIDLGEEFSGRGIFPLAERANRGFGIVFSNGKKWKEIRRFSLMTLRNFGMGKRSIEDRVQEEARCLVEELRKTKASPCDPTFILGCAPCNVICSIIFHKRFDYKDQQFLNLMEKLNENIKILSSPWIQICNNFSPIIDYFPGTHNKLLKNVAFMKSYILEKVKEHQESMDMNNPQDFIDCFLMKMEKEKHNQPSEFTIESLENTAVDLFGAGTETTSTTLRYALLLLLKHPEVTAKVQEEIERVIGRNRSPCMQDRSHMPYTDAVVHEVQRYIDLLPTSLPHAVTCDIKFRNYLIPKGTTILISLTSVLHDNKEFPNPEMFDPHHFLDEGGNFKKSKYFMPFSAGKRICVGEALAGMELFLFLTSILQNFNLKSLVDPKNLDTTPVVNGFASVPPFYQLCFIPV

O=C(O)Cc1ccccc1Nc1c(Cl)cccc1Cl [Diclofenac, diclofenac]
Km (CYP2C9): 47 µM

COc1cc(/C=C/C(=O)N2CCC3OC3C2=O)cc(OC)c1OC (centres unmarked) [M2]
incubation time of maximum production of the metabolite (human liver microsomes [1]): 20 min

COc1cc(/C=C/C(=O)N2CCC(O)C(O)C2=O)cc(OC)c1OC (centres unmarked) [M4]
incubation time after which the metabolite starts to be produced (lag-time) (human liver microsomes [1]): > 40 min | recombinant isoforms that contributed to M4 formation [2]: CYP2C19, CYP2D6, CYP2E1, CYP2B6 and CYP2C8

CC(=O)N1CCN(c2ccc(OCC3COC(Cn4ccnc4)(c4ccc(Cl)cc4Cl)O3)cc2)CC1 (centres unmarked) [ketoconazole]
inhibition at 10 min, 2 µM (CYP3A4): 83% | inhibitory effect on the formation of metabolite M3 (human liver microsomes [3]; ketoconazole 2 μM): significant inhibitory effect

CCCC(CCC)C(=O)O [valproic acid]
amount of metabolite M4 produced in presence of valproic acid (epoxide hydrolase): same amount produced

O=c1cc(-c2ccccc2)oc2c1ccc1ccccc12 [α-naphthoflavone]
inhibition of the formation of metabolite M1 (human liver microsomes [3]; α-naphthoflavone (CYP1A2 inhibitor) 1 μM): strong inhibition
